ChEMBL document CHEMBL1201862, “PubChem BioAssay data set” (2004)
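Protocol summary: plate cells (96-well), add compound at 5 concentrations, incubate 48 h, interpolate endpoints linearly. GI50 = concentration required for 50% inhibition of growth.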 Activity calls are given as the source filed them. Cut-off read from the data, not from the text of the source: active = GI50 up to about 1.1 µM and inactive = higher.

Key:
Test in all cases: NCI tumour cell line growth inhibition, 48 h
[1] = tested on: ACHN
[2] = tested on: CCRF-CEM
[3] = tested on: HT-29
[4] = tested on: K562
[5] = tested on: M14
[6] = tested on: MDA-N
[7] = tested on: NCI-H23
[8] = tested on: NCI-H460
[9] = tested on: OVCAR-4
[10] = tested on: OVCAR-8
[11] = tested on: RXF 393
[12] = tested on: SF-295
[13] = tested on: SF-539
[14] = tested on: SK-MEL-28
[15] = tested on: SK-MEL-5
[16] = tested on: SNB-75
[17] = tested on: UACC-62
[18] = tested on: HOP-92

Row | SMILES | GI50 [1] | GI50 [2] | GI50 [3] | GI50 [4] | GI50 [5] | GI50 [6] | GI50 [7] | GI50 [8] | GI50 [9] | GI50 [10] | GI50 [11] | GI50 [12] | GI50 [13] | GI50 [14] | GI50 [15] | GI50 [16] | GI50 [17] | GI50 [18]
1 | C=CCCCC1(C)CCCCNC1=O (stereo not drawn) | > 10 µM (inactive) | > 10 µM (inactive) | > 10 µM (inactive) | > 10 µM (inactive) | > 10 µM (inactive) | > 10 µM (inactive) | > 10 µM (inactive) | > 10 µM (inactive) | > 10 µM (inactive) | > 10 µM (inactive) | > 10 µM (inactive) | > 10 µM (inactive) | > 10 µM (inactive) | > 10 µM (inactive) | > 10 µM (inactive) | > 10 µM (inactive) | > 10 µM (inactive) | 
2 | CC(C)C1OC(N)=C(C#N)C1(C#N)C#N (stereo not drawn) | 36.9 µM (inactive) | 10.9 µM (inactive) | 38.1 µM (inactive) | 8.49 µM (inactive) | 60.7 µM (inactive) | 38.2 µM (inactive) | 33.3 µM (inactive) |  |  | 41.9 µM (inactive) | 44.7 µM (inactive) | > 100 µM (inactive) | 44.7 µM (inactive) |  | 33.3 µM (inactive) | 33.8 µM (inactive) | 32.5 µM (inactive) | 31.3 µM (inactive)
3 | Oc1ccccc1CNCc1nc2ccccc2[nH]1 | 12.9 µM (inactive) | 29 µM (inactive) | 0.495 µM (active) | 51.2 µM (inactive) | 86.3 µM (inactive) | > 100 µM (inactive) | > 100 µM (inactive) |  | > 100 µM (inactive) | 29 µM (inactive) | 75 µM (inactive) | 45.8 µM (inactive) | > 100 µM (inactive) | > 100 µM (inactive) | 22.4 µM (inactive) | 57.4 µM (inactive) | 78.7 µM (inactive) | 73.5 µM (inactive)
4 | CCn1c(-c2ccc(/N=N/Nc3ccc(-c4n[nH]c(=S)n4CC)cc3)cc2)n[nH]c1=S | 2.36 µM (inactive) | 3.91 µM (inactive) | 3.55 µM (inactive) | 2.67 µM (inactive) | 2.65 µM (inactive) | 3.19 µM (inactive) | 2.53 µM (inactive) |  | 1.97 µM (inactive) | 2.28 µM (inactive) | 3.43 µM (inactive) | 2.46 µM (inactive) |  | 4.18 µM (inactive) | 1.49 µM (inactive) | 2.79 µM (inactive) |  | 2.79 µM (inactive)
5 | CC1(C)C2CCC(=O)C1C(OCc1ccccc1)C2 (stereo not drawn) | > 100 µM (inactive) | > 100 µM (inactive) | > 100 µM (inactive) | 96.4 µM (inactive) | > 100 µM (inactive) | > 100 µM (inactive) | > 100 µM (inactive) | > 100 µM (inactive) | > 100 µM (inactive) | > 100 µM (inactive) | > 100 µM (inactive) | > 100 µM (inactive) | > 100 µM (inactive) | > 100 µM (inactive) | 17.4 µM (inactive) | > 100 µM (inactive) | > 100 µM (inactive) | 
6 | COC1=N[C@H](C(C)C)C(OC)=N[C@H]1Cc1ccc(C[C@@H]2N=C(OC)[C@@H](C(C)C)N=C2OC)s1 | 29.4 µM (inactive) | 19.5 µM (inactive) | 26.2 µM (inactive) | 32.4 µM (inactive) | 36 µM (inactive) | 49.3 µM (inactive) | 25.1 µM (inactive) | 58.3 µM (inactive) | 37.7 µM (inactive) | 76.9 µM (inactive) |  | 38.2 µM (inactive) | > 100 µM (inactive) | 34.7 µM (inactive) | 20.8 µM (inactive) | > 100 µM (inactive) | 45.1 µM (inactive) | > 100 µM (inactive)
7 | O=C1c2scc(-c3ccc(F)cc3)c2-n2cccc21 | 39.7 µM (inactive) | 28.6 µM (inactive) | 20.8 µM (inactive) |  | 29.5 µM (inactive) | 8.67 µM (inactive) |  | 28 µM (inactive) | 39.4 µM (inactive) | 57.7 µM (inactive) | 26.1 µM (inactive) | 26.2 µM (inactive) |  | 29.2 µM (inactive) | 22.4 µM (inactive) | 6.4 µM (inactive) | 18.6 µM (inactive) | 
8 | O=C1NC(N2CCCC(CO)C2)=N/C1=C\c1ccccc1 (stereo not drawn) | > 100 µM (inactive) | > 100 µM (inactive) | > 100 µM (inactive) |  | > 100 µM (inactive) | > 100 µM (inactive) | > 100 µM (inactive) |  | > 100 µM (inactive) | > 100 µM (inactive) | > 100 µM (inactive) | > 100 µM (inactive) | > 100 µM (inactive) | > 100 µM (inactive) | > 100 µM (inactive) | > 100 µM (inactive) | > 100 µM (inactive) | > 100 µM (inactive)
